In ChEMBL document CHEMBL1201862, “PubChem BioAssay data set” (2004):
Each block holds one compound with its values, some of them ahead of it. The source made the active and inactive calls.

Columns and labels:
Phospholipase D1 = biological target: T1, Phospholipase D1 (Homo sapiens, UniProt Q13393); assay: cellular phospholipase D1 inhibition IC50 – cell-based, dose response (AID 602151); assay type: functional;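 note: cellular PLD1 assay in Calu-1 cells stimulated with PMA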
T1 sequence (Q13393 whole entry): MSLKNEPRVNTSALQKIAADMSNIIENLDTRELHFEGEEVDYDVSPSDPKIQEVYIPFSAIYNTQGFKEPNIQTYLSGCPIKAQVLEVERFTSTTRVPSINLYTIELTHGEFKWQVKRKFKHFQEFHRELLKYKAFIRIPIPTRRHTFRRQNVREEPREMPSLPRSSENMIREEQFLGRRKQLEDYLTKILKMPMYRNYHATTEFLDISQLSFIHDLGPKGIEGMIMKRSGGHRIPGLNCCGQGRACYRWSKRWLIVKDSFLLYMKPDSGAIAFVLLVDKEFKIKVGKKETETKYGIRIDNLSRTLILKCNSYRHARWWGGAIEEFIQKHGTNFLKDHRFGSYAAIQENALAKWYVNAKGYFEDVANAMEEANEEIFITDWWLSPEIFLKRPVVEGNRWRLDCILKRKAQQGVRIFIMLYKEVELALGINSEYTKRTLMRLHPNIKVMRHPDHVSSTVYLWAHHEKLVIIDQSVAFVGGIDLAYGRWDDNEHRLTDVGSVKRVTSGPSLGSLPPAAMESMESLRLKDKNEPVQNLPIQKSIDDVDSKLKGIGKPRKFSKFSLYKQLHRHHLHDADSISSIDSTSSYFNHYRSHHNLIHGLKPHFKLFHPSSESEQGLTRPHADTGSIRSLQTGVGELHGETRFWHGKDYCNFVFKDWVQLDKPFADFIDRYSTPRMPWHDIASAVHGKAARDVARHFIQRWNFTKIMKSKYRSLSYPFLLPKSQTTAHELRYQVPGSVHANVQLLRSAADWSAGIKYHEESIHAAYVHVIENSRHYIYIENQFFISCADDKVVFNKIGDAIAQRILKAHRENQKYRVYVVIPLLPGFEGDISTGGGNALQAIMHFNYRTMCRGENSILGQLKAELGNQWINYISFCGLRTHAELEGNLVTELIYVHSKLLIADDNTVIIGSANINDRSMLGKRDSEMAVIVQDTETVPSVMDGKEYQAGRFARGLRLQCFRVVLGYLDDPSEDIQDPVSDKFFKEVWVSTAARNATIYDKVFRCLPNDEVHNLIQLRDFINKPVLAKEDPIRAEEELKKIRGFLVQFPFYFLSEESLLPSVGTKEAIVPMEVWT

Phospholipase D2 = Phospholipase D2 (Homo sapiens, UniProt O14939); assay: cellular phospholipase D2 inhibition IC50 – cell-based, dose response (AID 602147); assay type: functional;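 note: cellular assay in HEK293 cells overexpressing GFP-tagged PLD2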
Sequence of Phospholipase D2 (O14939 whole entry): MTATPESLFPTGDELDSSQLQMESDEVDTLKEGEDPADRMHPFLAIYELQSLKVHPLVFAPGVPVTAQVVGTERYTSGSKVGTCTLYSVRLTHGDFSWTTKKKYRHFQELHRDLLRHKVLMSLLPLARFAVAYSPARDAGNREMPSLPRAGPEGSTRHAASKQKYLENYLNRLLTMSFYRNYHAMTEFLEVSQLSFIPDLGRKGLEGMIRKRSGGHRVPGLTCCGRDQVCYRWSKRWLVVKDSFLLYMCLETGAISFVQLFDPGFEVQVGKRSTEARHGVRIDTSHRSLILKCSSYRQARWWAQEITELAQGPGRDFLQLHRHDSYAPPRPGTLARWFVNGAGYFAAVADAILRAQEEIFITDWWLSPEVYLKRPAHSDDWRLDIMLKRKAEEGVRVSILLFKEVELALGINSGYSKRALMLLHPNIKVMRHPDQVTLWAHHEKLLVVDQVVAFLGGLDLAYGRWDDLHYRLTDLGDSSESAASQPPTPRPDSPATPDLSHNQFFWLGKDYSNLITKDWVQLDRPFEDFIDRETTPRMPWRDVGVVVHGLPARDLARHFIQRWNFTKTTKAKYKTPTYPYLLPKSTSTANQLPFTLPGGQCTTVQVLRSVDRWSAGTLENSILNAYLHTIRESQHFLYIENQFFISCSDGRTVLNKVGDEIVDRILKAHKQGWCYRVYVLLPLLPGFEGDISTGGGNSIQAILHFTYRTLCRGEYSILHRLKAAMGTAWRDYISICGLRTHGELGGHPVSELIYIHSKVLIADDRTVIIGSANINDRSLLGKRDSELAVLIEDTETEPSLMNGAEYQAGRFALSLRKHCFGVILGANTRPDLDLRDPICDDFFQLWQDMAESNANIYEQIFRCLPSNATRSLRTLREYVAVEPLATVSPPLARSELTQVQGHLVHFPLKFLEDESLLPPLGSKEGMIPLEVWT

HeLa = assay: ATP-based viability loss in HeLa cells – cell-based, CellTiter-Glo luminescence, cherry-pick samples, cytotoxicity control for MITF activator project, dose response (AID 540259); assay type: functional; details: Homo sapiens
Protein skinhead-1 = biological target: T2, Protein skinhead-1 (Caenorhabditis elegans, UniProt P34707); assay type: functional
T2 sequence (P34707 whole entry): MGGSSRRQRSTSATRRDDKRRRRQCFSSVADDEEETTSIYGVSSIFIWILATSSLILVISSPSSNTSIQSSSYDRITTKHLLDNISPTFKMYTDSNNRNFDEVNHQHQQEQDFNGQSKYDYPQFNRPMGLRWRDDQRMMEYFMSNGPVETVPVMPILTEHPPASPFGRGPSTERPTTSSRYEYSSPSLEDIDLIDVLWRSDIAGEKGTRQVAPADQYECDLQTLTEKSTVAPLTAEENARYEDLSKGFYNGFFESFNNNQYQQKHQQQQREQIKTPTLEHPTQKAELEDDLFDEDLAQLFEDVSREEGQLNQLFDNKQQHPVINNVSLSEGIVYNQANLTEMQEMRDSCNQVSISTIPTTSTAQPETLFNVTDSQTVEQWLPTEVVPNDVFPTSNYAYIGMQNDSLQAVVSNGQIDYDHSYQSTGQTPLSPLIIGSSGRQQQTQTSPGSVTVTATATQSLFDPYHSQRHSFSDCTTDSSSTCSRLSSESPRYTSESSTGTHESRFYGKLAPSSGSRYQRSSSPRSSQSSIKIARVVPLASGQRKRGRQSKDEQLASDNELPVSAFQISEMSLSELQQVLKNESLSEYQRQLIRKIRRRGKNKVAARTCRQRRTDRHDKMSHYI

Insulin-degrading enzyme [1] = biological target: T3, Insulin-degrading enzyme (Homo sapiens, UniProt P14735); assay: recombinant IDE activation, cell-free – biochemical, fluorescence polarization, counter-screen for IDE activator project, dose response (AID 588681)
T3 sequence (P14735 whole entry): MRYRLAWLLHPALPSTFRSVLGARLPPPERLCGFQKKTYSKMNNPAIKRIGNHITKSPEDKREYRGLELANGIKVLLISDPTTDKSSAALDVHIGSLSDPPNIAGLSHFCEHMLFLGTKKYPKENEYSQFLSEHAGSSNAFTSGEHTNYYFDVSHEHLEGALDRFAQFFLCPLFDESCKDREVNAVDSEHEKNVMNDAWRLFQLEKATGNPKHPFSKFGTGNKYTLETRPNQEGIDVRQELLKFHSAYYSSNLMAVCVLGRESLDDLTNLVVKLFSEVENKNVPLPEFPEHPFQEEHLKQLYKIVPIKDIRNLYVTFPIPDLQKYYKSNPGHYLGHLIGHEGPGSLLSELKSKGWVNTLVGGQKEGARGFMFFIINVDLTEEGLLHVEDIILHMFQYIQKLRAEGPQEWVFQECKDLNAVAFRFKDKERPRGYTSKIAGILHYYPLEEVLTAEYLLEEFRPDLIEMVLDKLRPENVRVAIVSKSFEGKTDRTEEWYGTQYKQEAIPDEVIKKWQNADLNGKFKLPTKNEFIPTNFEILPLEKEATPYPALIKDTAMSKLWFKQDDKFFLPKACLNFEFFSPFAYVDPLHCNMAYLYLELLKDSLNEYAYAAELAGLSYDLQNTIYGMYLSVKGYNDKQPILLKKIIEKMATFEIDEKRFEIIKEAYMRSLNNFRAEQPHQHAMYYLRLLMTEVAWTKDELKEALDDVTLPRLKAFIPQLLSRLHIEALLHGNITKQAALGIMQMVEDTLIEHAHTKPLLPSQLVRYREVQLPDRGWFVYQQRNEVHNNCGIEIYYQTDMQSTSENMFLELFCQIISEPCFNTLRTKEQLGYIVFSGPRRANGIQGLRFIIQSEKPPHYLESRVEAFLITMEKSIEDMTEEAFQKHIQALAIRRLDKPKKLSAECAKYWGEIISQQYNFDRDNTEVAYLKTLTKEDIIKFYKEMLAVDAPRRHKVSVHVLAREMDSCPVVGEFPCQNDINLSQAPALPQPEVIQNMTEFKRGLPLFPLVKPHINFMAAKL

Insulin-degrading enzyme [2] = biological target: T3, Insulin-degrading enzyme; assay: cellular IDE activation of Abeta substrate cleavage – fluorescence polarization, HEK cells, dose response (AID 588439); assay type: functional, cell-based
HEK293 [3] = assay: membrane integrity loss in HEK cells – cell-based, fluorescence, cytotoxicity control for IDE activator project, dose response (AID 588440); assay type: functional; details: Homo sapiens;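 note: cytotoxicity by LDH release measuring loss of membrane integrity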
HEK293 [4] = assay: optical interference in Abeta FP readout, dose response, artefact control for IDE activator project, biochemical, fluorescence polarization (AID 588442); assay type: functional, cell-based; details: Homo sapiens
[5] = biological target: FAD-linked sulfhydryl oxidase ALR (Homo sapiens, UniProt P55789); assay: ALR-catalysed DTT oxidation blockers – biochemical, H2O2 detection, luminescence, cherry-pick, dose response (AID 493248)
Sequence of FAD-linked sulfhydryl oxidase ALR (P55789 whole entry): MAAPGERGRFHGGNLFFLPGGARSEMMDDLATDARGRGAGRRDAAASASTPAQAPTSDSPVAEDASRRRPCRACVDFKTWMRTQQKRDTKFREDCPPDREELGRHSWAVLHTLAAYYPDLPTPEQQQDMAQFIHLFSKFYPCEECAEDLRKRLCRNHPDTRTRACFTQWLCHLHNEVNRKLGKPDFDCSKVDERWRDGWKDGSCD

[6] = biological target: Dual specificity protein kinase CLK1 (Homo sapiens, UniProt P49759); assay: inhibition of human CLK1 activity – biochemical, cherry-picked samples, selectivity assay for Dyrk1A inhibitor project, dose response (AID 588811)
Sequence of Dual specificity protein kinase CLK1 (P49759 whole entry): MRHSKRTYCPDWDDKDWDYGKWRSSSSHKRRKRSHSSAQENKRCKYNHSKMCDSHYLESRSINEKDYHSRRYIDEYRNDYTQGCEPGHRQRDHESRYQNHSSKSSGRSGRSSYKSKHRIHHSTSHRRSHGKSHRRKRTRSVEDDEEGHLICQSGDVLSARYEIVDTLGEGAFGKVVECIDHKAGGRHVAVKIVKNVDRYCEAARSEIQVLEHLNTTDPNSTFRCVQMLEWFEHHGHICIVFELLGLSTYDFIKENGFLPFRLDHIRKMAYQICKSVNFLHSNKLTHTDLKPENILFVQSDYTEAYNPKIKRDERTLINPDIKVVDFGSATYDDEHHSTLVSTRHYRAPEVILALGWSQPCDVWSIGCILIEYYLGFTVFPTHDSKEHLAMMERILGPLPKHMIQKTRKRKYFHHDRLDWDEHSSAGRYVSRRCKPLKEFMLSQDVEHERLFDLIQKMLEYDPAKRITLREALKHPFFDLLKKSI

[7] = biological target: Dual specificity tyrosine-phosphorylation-regulated kinase 1A (Rattus norvegicus, UniProt Q63470); assay type: biochemical, Homo sapiens

SMILES: O=C(NCCN1CCC(n2nnc3ccccc32)CC1)c1ccc2ccccc2c1
IC50 (Phospholipase D1): 2.7 µM (active)
IC50 (Phospholipase D2): 1.75 µM (active)

SMILES: CN(N=O)c1ccc(CC2CCc3ccccc32)cc1 (centres undefined)
AC50 (HeLa): 79.8 µM (active)
IC50 (Protein skinhead-1): 58.5 µM (inactive)

SMILES: CN(C)CCCN(C(=O)CCSc1ccccc1)c1nc2cc3c(cc2s1)OCO3
EC50 (Insulin-degrading enzyme [1]): > 54.7 µM (inactive)
EC50 (Insulin-degrading enzyme [2]): > 54.7 µM (inactive)
IC50 (HEK293 [3]): 33.9 µM (inactive)
EC50 (HEK293 [4]): > 54.7 µM (inactive)

AC50 [5]: 1.11 µM (active)
AC50 [6]: 7.74 µM (active)
AC50 [7]: 5.26 µM (active)
SMILES: O=C(Nc1nc2c(s1)CCCC2)c1ccc(N2C(=O)CCC2=O)cc1

SMILES: C[C@@H](CN1CCC2(CC1)C(=O)NCN2c1ccc(F)c(F)c1)NC(=O)c1ccc(Cl)cc1
IC50 (Phospholipase D1): 0.031 µM (active)
IC50 (Phospholipase D2): 0.125 µM (active)

AC50 [6]: 2.04 µM (active)
SMILES: c1cc(-c2ccc3c(c2)OCO3)nc(Nc2ccc3c(c2)OCO3)n1
